Measured values as given in patent US9850272B2, “Therapeutically active estratrienthiazole derivatives as inhibitors of 17.beta-hydroxy-steroid dehydrogenase, type 1” (FORENDO PHARMA LTD, priority 2013, dated 2017).
Counter-ions that a name gives are not always drawn.

Columns and labels:
[1] = biological target: T1, Recombinant Human 17β-HSD1 (Homo sapiens, UniProt P14061); assay: Inhibition of recombinant human 17β-HSD1 (conversion of 3H-estrone to estradiol, HPLC); assay type: biochemical; conditions: inhibitor at 1 μM, 30 nM estrone, 1 mM NADPH, 30 min at RT; for inhibition at 1 µM: read-out: 17β-HDS1 Inhibition % at 1 μM
T1 construct: made in house; host or cells: Sd9 (Sf9) insect cells, baculovirus (Bac to Bac Expression System)
T1 sequence (P14061 1-328): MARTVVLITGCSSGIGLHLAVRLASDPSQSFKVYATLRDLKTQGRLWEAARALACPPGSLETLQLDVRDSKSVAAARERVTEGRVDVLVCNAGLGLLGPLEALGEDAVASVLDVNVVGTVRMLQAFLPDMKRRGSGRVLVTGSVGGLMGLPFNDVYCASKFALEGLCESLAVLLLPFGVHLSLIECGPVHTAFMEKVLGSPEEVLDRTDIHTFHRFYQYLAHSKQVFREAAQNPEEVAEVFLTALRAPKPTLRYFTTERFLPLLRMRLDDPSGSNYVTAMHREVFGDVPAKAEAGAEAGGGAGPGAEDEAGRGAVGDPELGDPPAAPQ
Protocol: 17β-HSD1 Production and Isolation:
Recombinant baculovirus was generated by the “Bac to Bac Expression System” (Invitrogen). Recombinant bacmid was transfected to Sd9 insect cells using “Cellfectin Reagent” (Invitrogen). 60 h later cells were harvested; the microsomal fraction was isolated as described by Puranen, T. J., Poutanen, M. H., Peltoketo, H. E., Vihko, P. T. and Vihko, R. K. (1994) Site-directed mutagenesis of the putative active site of human 17 β-hydroxysteroid dehydrogenase type 1. Biochem. J. 304: 289-293. Aliquots were stored frozen until determination of enzymatic activity.
Assay—Inhibition of Recombinant Human 17β-HSD1:
Recombinant protein (1 μg/ml) was incubated in 20 mM KH2PO4 pH 7.4 with 30 nM estrone (including 800.000 cpm/ml of ^3H-estrone) and 1 mM NADPH for 30 min at RT, in the presence of the potential inhibitor at concentrations 1 μM or 0.1 μM. Inhibitor stock solutions were prepared in DMSO. Final concentration of DMSO was adjusted to 1% in all samples. The enzyme reaction was stopped by addition of 10% trichloroacetic acid (final concentration). Samples were centrifuged in a microtiter plate at 4000 rpm for 10 min. Supernatants were applied to reverse phase HPLC on a Waters Symmetry C18 column, equipped with a Waters Sentry Guard column. Isocratic HPLC runs were performed at RT at a flow rate of 1 ml/min in acetonitrile:water 48:52 as running solvent. Radioactivity was monitored in the eluate by a Packard Flow Scintillation Analyzer. Total radioactivity for estrone and estradiol were determined in each sample and percent conversion of estrone to estradiol was calculated according to the following formula:
(§1) Percent inhibition was calculated flowingly: % inhibition=100−% conversion

[2] = biological target: T2, Recombinant Human 17β-HSD2 (Homo sapiens, UniProt P37059); assay: Inhibition of recombinant human 17β-HSD2 (conversion of 3H-estradiol to estrone, HPLC); assay type: biochemical; conditions: inhibitor at 1 μM, 50 nM estradiol, 1 mM NADH, 30 min at RT; for inhibition at 1 µM: read-out: 17β-HSD2 Inhibition % at 1 μM
T2 construct: made in house; host or cells: Sd9 (Sf9) insect cells, baculovirus (Bac to Bac Expression System)
T2 sequence (P37059 1-387): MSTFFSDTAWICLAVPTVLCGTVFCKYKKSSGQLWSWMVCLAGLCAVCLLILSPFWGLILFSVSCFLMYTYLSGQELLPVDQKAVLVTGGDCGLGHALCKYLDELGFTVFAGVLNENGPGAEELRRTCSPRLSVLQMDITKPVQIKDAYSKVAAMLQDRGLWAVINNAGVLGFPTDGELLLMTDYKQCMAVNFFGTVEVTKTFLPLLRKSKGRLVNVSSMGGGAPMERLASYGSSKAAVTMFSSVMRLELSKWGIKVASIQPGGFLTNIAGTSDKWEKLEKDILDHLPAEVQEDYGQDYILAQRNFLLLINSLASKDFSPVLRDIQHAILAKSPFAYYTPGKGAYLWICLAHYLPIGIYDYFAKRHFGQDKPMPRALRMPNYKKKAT
Protocol: 17β-HSD2 Production and Isolation:
Similarly to 17β-HSD1 the Recombinant baculovirus was generated by the “Bac to Bac Expression System” (Invitrogen). Recombinant bacmid was transfected to Sd9 insect cells using “Cellfectin Reagent” (Invitrogen). 60 h later cells were harvested and supernatant were fractionated by the following protocol: • cells were dissolved into 40 ml of A-buffer (40 mM TRIS, pH8.0, 20% glycerol, 20 μM NAD, 0.4 mM PMSF, 150 mM NaCl, 0.5% dodecyl-β-maltoside+protease inhibitor cocktail) • cells were sonicated • lysate was incubated on ice for 15 min • lysate was centrifuged 5000 rpm 15 min, +4° C. • centrifugation of the supernatant 180.000 g 30 min, +4° C. • pellet was dissolved into 8 ml of A-buffer • not resuspended material was removed by centrifugation 5000 rpm 15 min, +4° C. • the clear supernatant was divided into 100 μl aliquots and were stored frozen until determination of enzymatic activity.
The amount of 17β-HSD2 was analysed by immunoblotting and total protein concentration of each extract batch was determined.
Assay—Inhibition of Recombinant Human 17β-HSD2:
Recombinant protein (4 μg/ml) was incubated in 20 mM KH2PO4 pH 8.5 with 50 nM estradiol (including 800.000 cpm/ml of ^3H-estradiol) and 1 mM NADH for 30 min at RT, in the presence of the potential inhibitor at concentrations 1 μM or 0.1 μM. Inhibitor stock solutions were prepared in DMSO. Final concentration of DMSO was adjusted to 1% in all samples. The enzyme reaction was stopped by addition of 10% trichloroacetic acid (final concentration). Samples were centrifuged in a microtiter plate at 4000 rpm for 10 min. Supernatants were applied to reverse phase HPLC on a Waters Symmetry C18 column, equipped with a Waters Sentry Guard column. Isocratic HPLC runs were performed at RT at a flow rate of 1 ml/min in acetonitrile:water 48:52 as running solvent. Radioactivity was monitored in the eluate by a Packard Flow Scintillation Analyzer. Total radioactivity for estrone and estradiol were determined in each sample and percent conversion of estradiol to estrone was calculated according to the following formula:
as §1

Structure (SMILES)	inhibition at 1 µM [1] [%]	inhibition at 1 µM [2] [%]	17β-HDS1 Inhibition % at 1 μM ([1]; dihydrochloride) [%]	17β-HSD2 Inhibition % at 1 μM ([2]; dihydrochloride) [%]
Cc1cnc(NC(=O)CC[C@@H]2C[C@H](OC(=O)CCC(=O)O)[C@@]3(C)CCC4c5ccc(O)cc5CCC4C23)s1 (stereo partly drawn) [Compound 43, Succinic acid mono-{(13S,15R,17S)-3-hydroxy-13-methyl-15-[2-(5-methylthiazol-2-ylcarbamoyl)-ethyl]-17-oxo-7,8,9,11,12,13,14,15,16,17-decahydro-6H-cyclopenta[a]phenanthren-17-yl}ester]	97	1		
Cc1cnc(NC(=O)CC[C@@H]2C[C@H](NCC(C)C)[C@@]3(C)CCC4c5cc(C(C)(C)C)c(O)cc5CCC4C23)s1 (stereo partly drawn) [Compound 75b, 3-((13S,15R)-2-tert-Butyl-3-Hydroxy-17-isobutylamino-13-methyl-7,8,9,11,12,13,14,15,16,17-decahydro-6H-cyclopenta[a]phenanthren-15-yl]-N-(5-methylthiazol-2-yl)propionamide]	77	13		
Cc1cnc(NC(=O)CC[C@@H]2C[C@H](O)[C@@]3(C)CCC4c5ccc(O)cc5CCC4C23)s1 (stereo partly drawn) [Compound 1, 3-((13S,15R,17S)-3,17-Dihydroxy-13-methyl-7,8,9,11,12,13,14,15,16,17decahydro-6H-cyclopenta[a]phenanthren-15-yl)-N-(5-methylthiazol-2-yl)propanamide]	98	48		
Cc1cnc(NC(=O)CC[C@@H]2CC(NCCN(C)C)[C@@]3(C)CCC4c5ccc(O)cc5CCC4C23)s1 (stereo partly drawn) [Compound 81, 3-[(13S,15R)-17-(2-Dimethylamino-ethylamino)-3-hydroxy-13-methyl-7,8,9,11,12,13,14,15,16,17-decahydro-6H-cyclopenta[a]phenanthren-15-yl]-N-(5-methylthiazol-2-yl)propionamide]	71	2		
Cc1cnc(NC(=O)CC[C@@H]2C[C@H](O)[C@@]3(C)CCC4c5ccc(O)c(NC(C)C)c5CCC4C23)s1 (stereo partly drawn) [Compound 71, 3-((13S,15R,17S)-3,17-Dihydroxy-4-isopropylamino-13-methyl-7,8,9,11,12,13,14,15,16,17-decahydro-6H-cyclopenta[a]phenanthren-15-yl)-N-(5-methylthiazol-2-yl)propionamide]	49	10		
Cc1cnc(NC(=O)CC[C@@H]2CC(NCCCN(C)C)[C@@]3(C)CCC4c5ccc(O)cc5CCC4C23)s1 (stereo partly drawn) [Compound 80b, 3-[(13S,15R)-17-(3-Dimethylamino-propylamino)-3-hydroxy-13-methyl-7,8,9,11,12,13,14,15,16,17-decahydro-6H-cyclopenta[a]phenanthren-15-yl]-N-(5-methylthiazol-2-yl)propionamide dihydrochloride]			61	2
COCCNC1C[C@@H](CCC(=O)Nc2ncc(C)s2)C2C3CCc4cc(O)ccc4C3CC[C@]12C (stereo partly drawn) [Compound 77, 3-((13S,15R)-3-Hydroxy-17-(2-methoxyethylamino)-13-methyl-7,8,9,11,12,13,14,15,16,17-decahydro-6H-cyclopenta[a]phenanthren-15-yl]-N-(5-methylthiazol-2-yl)propionamide]	84	1		
Cc1cnc(NC(=O)CC[C@@H]2C[C@@](O)(CC#N)[C@@]3(C)CCC4c5ccc(O)cc5CCC4C23)s1 (stereo partly drawn) [Compound 24, 3-((13S,15R,17R)-17-(cyanomethyl)-3,17-dihydroxy-13-methyl-7,8,9,11,12,13,14,15,16,17-decahydro-6H-cyclopenta[a]phenanthren-15-yl)-N-(5-methylthiazol-2-yl)propanamide]	51	4		
Cc1cnc(NC(=O)CC[C@@H]2C[C@H](O)[C@@]3(C)CCC4c5ccc(O)c(NC(C)CO)c5CCC4C23)s1 (stereo partly drawn) [Compound 72, 3-[(13S,15R,17S)-3,17-Dihydroxy-4-(2-hydroxy-1-methyl-ethylamino)-13-methyl-7,8,9,11,12,13,14,15,16,17-decahydro-6H-cyclopenta[a]phenanthren-15-yl]-N-(5-methylthiazol-2-yl)propionamide]	50	0		
COc1ccc2c(c1)CCC1C2CC[C@@]2(C)C1[C@H](CCC(=O)Nc1ncc(C)s1)C[C@@H]2O (stereo partly drawn) [Compound 6, 3-((13S,15R,17S)-17-Hydroxy-3-methoxy-13-methyl-7,8,9,11,12,13,14,15,16,17-decahydro-6H-cyclopenta[a]phenanthren-15-yl)-N-(5-methylthiazol-2-yl)propanamide]	58	3		
CC(=O)O[C@H]1C[C@@H](CCC(=O)Nc2ncc(C)s2)C2C3CCc4cc(O)ccc4C3CC[C@@]21C (stereo partly shown) [Compound 36]	64	3		
Cc1cnc(NC(=O)CC[C@@H]2CC(O)[C@@]3(C)CCC4c5ccccc5CCC4C23)s1 (stereo partly drawn) [Compound 67, 3-((13S,15R)-17-Hydroxy13-methyl-7,8,9,11,12,13,14,15,16,17-decahydro-6H-cyclopenta[a]phenanthren-15-yl)-N-(5-methylthiazol-2-yl)propanamide]	74	30		
COc1ccc2c(c1)CCC1C2CC[C@@]2(C)C1[C@H](CCC(=O)Nc1ncc(C)s1)C[C@@]2(O)C#N (stereo partly drawn) [Compound 23, 3-((13S,15R,17S)-17-cyano-17-hydroxy-3-methoxy-13-methyl-7,8,9,11,12,13,14,15,16,17-decahydro-6H-cyclopenta[a]phenanthren-15-yl)-N-(5-methylthiazol-2-yl)propanamide]	82	3		
Cc1cnc(NC(=O)CC[C@@H]2C[C@H](NCC(C)C)[C@@]3(C)CCC4c5ccc(O)cc5CCC4C23)s1 (stereo partly drawn) [Compound 74, 3-((13S,15R)-3-Hydroxy-17-isobutylamino-13-methyl-7,8,9,11,12,13,14,15,16,17-decahydro-6H-cyclopenta[a]phenanthren-15-yl]-N-(5-methylthiazol-2-yl)propionamide]	80	2		
